The record followed here is the Kinase Knowledgebase extract (Sharma et al. 2016).

The assay addresses PIK3CD (Human) (UniProt O00329). The assay can be described thus: Assessment of PIK3CD Kinase Activity (Scintillation Proximity Assay).

Sequence of PIK3CD (Human) (O00329 whole entry, looked up): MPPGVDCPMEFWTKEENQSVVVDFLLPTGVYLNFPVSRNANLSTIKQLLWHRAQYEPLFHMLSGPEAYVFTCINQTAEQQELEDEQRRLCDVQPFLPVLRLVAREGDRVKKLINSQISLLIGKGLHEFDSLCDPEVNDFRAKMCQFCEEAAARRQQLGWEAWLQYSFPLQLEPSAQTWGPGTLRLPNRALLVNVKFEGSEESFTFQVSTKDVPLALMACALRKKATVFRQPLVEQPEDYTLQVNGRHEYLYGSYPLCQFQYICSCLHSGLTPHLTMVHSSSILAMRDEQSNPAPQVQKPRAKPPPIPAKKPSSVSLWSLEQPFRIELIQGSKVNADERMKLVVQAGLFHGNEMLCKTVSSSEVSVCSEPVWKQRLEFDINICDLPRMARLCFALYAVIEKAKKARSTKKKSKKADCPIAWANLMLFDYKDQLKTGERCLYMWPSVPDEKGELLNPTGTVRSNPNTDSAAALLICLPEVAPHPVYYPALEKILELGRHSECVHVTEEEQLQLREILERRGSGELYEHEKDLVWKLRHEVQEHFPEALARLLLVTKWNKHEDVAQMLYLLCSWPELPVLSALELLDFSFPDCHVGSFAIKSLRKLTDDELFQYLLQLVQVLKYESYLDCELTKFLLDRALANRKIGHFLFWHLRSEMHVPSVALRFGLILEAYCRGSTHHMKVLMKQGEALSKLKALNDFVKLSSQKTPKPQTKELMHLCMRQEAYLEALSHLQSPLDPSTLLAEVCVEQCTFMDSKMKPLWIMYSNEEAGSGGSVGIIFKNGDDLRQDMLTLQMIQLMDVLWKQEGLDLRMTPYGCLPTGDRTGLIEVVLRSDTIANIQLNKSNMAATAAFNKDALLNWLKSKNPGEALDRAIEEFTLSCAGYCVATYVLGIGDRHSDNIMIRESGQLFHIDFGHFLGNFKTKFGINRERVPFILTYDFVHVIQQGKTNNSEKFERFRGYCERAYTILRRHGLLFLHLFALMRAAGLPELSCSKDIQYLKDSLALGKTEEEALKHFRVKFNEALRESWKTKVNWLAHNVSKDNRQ

For orientation: IC50 means the midpoint of a concentration-inhibition curve. A high value points to weaker potency in that assay. As to `COc1c(C(C)n2nc(C)c3c(N)ncnc32)cc(Cl)c(C)c1C1CN(C2CCOC2)C1` (centres undefined), the IC50 was no more than 10 nM.
Then `COc1c(C(C)n2nc(C)c3c(N)ncnc32)cc(Cl)c(C#N)c1C1CN(CCO)C1` (centres undefined), with no more than 10 nM; and `CCOc1c(C(C)n2nc(C)c3c(N)ncnc32)cc(Cl)c(C)c1C1CN(C(=O)c2cnn(C)c2)C1` (centres undefined), with no more than 10 nM.
Then `CCOc1c(C(C)n2nc(C)c3c(N)ncnc32)cc(Cl)c(C)c1C1CN(CC(C)(C)O)C1` (centres undefined), with no more than 10 nM; and `CCOc1c(C(C)n2nc(C)c3c(N)ncnc32)cc(Cl)c(C)c1C1CNC(=O)C1` (centres undefined), with no more than 10 nM.
With `CCOc1c(C(C)n2nc(C#C[C@@H](C)O)c3c(N)ncnc32)cc(Cl)c(C)c1-c1ccc(C(=O)N(C)C)nc1` (some centres undefined), the IC50 is no more than 10 nM.
Then `CCOc1c(C(C)n2nc(-c3ccn(C)n3)c3c(N)ncnc32)cc(Cl)c(C)c1-c1ccc(C(=O)N(C)C)nc1` (centres undefined), with no more than 10 nM; and `COc1c(C(C)n2nc(C)c3c(N)ncnc32)cc(Cl)c(C)c1-c1ccnc(N(C)C)c1` (centres undefined), with no more than 10 nM.
The compound `CNC(=O)c1ccc(-c2c(C)c(Cl)cc(C(C)n3nc(C)c4c(N)ncnc43)c2OC)cn1` (centres undefined) showed a 50% inhibitory concentration (IC50) of no more than 10 nM.
Then `COc1c(C(C)n2nc(C)c3c(N)ncnc32)cc(Cl)c(C)c1-c1cncc(C(=O)N(C)C)c1` (centres undefined), with no more than 10 nM.
Then `COc1c(C(C)n2nc(C)c3c(N)ncnc32)cc(Cl)c(C#N)c1C1CN(CC2CC2)C1` (centres undefined), with no more than 10 nM.
With `COc1c(C(C)n2nc(C)c3c(N)ncnc32)cc(Cl)c(C)c1-c1cnc(N)nc1` (centres undefined), the 50% inhibitory concentration (IC50) was no more than 10 nM.
Then `COc1c(C(C)n2nc(C)c3c(N)ncnc32)cc(Cl)c(C)c1-c1cncc(C(=O)N(C)CCN)c1` (centres undefined), with no more than 10 nM; and `CCOc1c(C(C)n2nc(C)c3c(N)ncnc32)cc(Cl)c(C#N)c1C1CN(S(=O)(=O)C(C)C)C1` (centres undefined), with no more than 10 nM.
In the case of `COc1c(C(C)n2nc(C)c3c(N)ncnc32)cc(Cl)c(C#N)c1C1CN(C(N)=O)C1` (centres undefined), the IC50 is no more than 10 nM.
As to `COc1c(C(C)n2nc(C)c3c(N)ncnc32)cc(Cl)c(C)c1C1CCN(CC(C)(C)O)CC1` (centres undefined), the IC50 was no more than 10 nM.
As for `CCOc1c(C(C)n2nc(C)c3c(N)ncnc32)cc(Cl)c(F)c1C1CNC(=O)C1` (centres undefined), the figure is no more than 10 nM; as for `COc1c(C(C)n2nc(C)c3c(N)ncnc32)cc(Cl)c(F)c1C1CN(C[C@@H](C)O)C1` (some centres undefined), no more than 10 nM.
As for `CCOc1c(C(C)n2nc(C)c3c(N)ncnc32)cc(Cl)c(C)c1-c1ccc(C(=O)N(C)C)nc1` (centres undefined), the figure is no more than 10 nM; as for `CCOc1c(C(C)n2nc(C)c3c(N)ncnc32)cc(C)c(C#N)c1C1CN(CCO)C1` (centres undefined), no more than 10 nM; as for `COc1c(C(C)n2nc(C)c3c(N)ncnc32)cc(Cl)c(C)c1C1CN(C(=O)C2CC2)C1` (centres undefined), no more than 10 nM.
Take `CCOc1c(C(C)n2nc(C)c3c(N)ncnc32)cc(Cl)c(C)c1C1CN(C(=O)[C@H](C)O)C1` (some centres undefined): the IC50 was no more than 10 nM.
In turn, `CCOc1c(C(C)n2nc(C)c3c(N)ncnc32)cc(Cl)c(C#N)c1C1CN(CC)C1` (centres undefined) gave a concentration for half-maximal inhibition (IC50) of no more than 10 nM.
Then `CCOc1c(C(C)n2nc(C)c3c(N)ncnc32)cc(Cl)c(C#N)c1C1CN(C2CCOCC2)C1` (centres undefined), with no more than 10 nM; and `CCC(=O)N1CC(c2c(C)c(Cl)cc(C(C)n3nc(C)c4c(N)ncnc43)c2OC)C1` (centres undefined), with no more than 10 nM.
Then `CCOc1c(C(C)n2nc(CC#N)c3c(N)ncnc32)cc(Cl)c(C)c1-c1ccc(C(=O)N(C)C)nc1` (centres undefined), with no more than 10 nM.
Then `CCOc1c(C(C)n2nc(CF)c3c(N)ncnc32)cc(Cl)c(C)c1-c1ccc(C(=O)N(C)C)nc1` (centres undefined), with no more than 10 nM; and `CCOc1c(C(C)n2nc(-c3cnn(CCO)c3)c3c(N)ncnc32)cc(Cl)c(C)c1-c1ccc(C(=O)N(C)C)nc1` (centres undefined), with no more than 10 nM; and `COc1c(C(C)n2nc(C)c3c(N)ncnc32)cc(Cl)c(C)c1C1CN(C[C@H](C)O)C1` (some centres undefined), with no more than 10 nM.
`CCC(C)N1CC(c2c(C)c(Cl)cc(C(C)n3nc(C)c4c(N)ncnc43)c2OC)C1` (centres undefined): the IC50 is no more than 10 nM.
Compound `CCOc1c(C(C)n2nc(C)c3c(N)ncnc32)cc(Cl)c(C#N)c1C1CN(C(N)=O)C1` (centres undefined) registered a half-inhibitory concentration (IC50) of no more than 10 nM.
Turning to `CCOc1c(C(C)n2nc(C)c3c(N)ncnc32)cc(Cl)c(F)c1C1CN(C[C@@H](C)O)C1` (some centres undefined), the half-maximal inhibitory concentration (IC50) was no more than 10 nM.
As to `COc1c(C(C)n2nc(C(F)F)c3c(N)ncnc32)cc(Cl)c(F)c1C1CN(CCO)C1` (centres undefined), the IC50 was no more than 10 nM.
Then `CNC(=O)[C@@H](C)N1CC(c2c(C)c(C#N)cc(C(C)n3nc(C(F)F)c4c(N)ncnc43)c2OC)C1` (some centres undefined), with no more than 10 nM; and `CCOc1c(C(C)n2nc(C(F)F)c3c(N)ncnc32)cc(Cl)c(F)c1C1CN(CCO)C1` (centres undefined), with no more than 10 nM; and `COc1c(C(C)n2nc(C)c3c(N)ncnc32)cc(Cl)c(C)c1C1CN([C@@H](C)C(O)N(C)C)C1` (some centres undefined), with no more than 10 nM.
Then `COc1c(C(C)n2nc(C)c3c(N)ncnc32)cc(Cl)c(C)c1C1CN(CC(C)C)C1` (centres undefined), with no more than 10 nM.
As for `CCOc1c(C(C)n2nc(C)c3c(N)ncnc32)cc(Cl)c(C)c1-c1cnn(CC(=O)N(C)C)c1` (centres undefined), the figure is no more than 10 nM; as for `COc1c(C(C)n2nc(C)c3c(N)ncnc32)cc(Cl)c(C#N)c1C1CN(S(=O)(=O)C2CC2)C1` (centres undefined), no more than 10 nM.
